What was measured:
[1] = biological target: Acetylcholinesterase (Electrophorus electricus, UniProt O42275); assay type: ADME
Description: Inhibition of electric eel AChE using acetylthiocholine iodide as substrate preincubated for 30 mins followed by substrate addition and measured after 30 mins by Ellman's method

[2] = test system: PC-12; test: cells; assay type: functional; settings: Rattus norvegicus
[3] = test system: PC-12; test: cells; assay type: functional; settings: Rattus norvegicus; remark: listed apart in the source
[4] = test system: PC-12; test: cells; assay type: functional; settings: Rattus norvegicus; remark: listed apart in the source
[5] = test system: PC-12; test: cells; assay type: functional; settings: Rattus norvegicus; remark: listed apart in the source
[6] = test system: PC-12; test: cells; assay type: functional; settings: Rattus norvegicus; remark: listed apart in the source
[7] = biological target: Cholinesterase (Equus caballus, UniProt P81908)
Description: Inhibition of equine serum BuChE using S-butyrylthiocholine iodide as substrate preincubated with enzyme for 30 mins followed by substrate addition and measured after 30 mins by Ellman's method

[8] = n-Octanol-phosphate buffer partition co-efficient, log P of compound at pH 7.4 incubated for 48 hrs by UV spectrophotometry-based shake-flask method; assay type: physicochemical
[9] = test system: PC-12; test: Neuroprotective activity against H2O2 induced cytotoxicity in rat PC12 cells assessed as increase in cell viability pretreated for 3 hrs followed by H2O2 challenge measured after 24 hrs by MTT assay; assay type: functional, cell-based

Sequence of Cholinesterase (P81908 whole entry): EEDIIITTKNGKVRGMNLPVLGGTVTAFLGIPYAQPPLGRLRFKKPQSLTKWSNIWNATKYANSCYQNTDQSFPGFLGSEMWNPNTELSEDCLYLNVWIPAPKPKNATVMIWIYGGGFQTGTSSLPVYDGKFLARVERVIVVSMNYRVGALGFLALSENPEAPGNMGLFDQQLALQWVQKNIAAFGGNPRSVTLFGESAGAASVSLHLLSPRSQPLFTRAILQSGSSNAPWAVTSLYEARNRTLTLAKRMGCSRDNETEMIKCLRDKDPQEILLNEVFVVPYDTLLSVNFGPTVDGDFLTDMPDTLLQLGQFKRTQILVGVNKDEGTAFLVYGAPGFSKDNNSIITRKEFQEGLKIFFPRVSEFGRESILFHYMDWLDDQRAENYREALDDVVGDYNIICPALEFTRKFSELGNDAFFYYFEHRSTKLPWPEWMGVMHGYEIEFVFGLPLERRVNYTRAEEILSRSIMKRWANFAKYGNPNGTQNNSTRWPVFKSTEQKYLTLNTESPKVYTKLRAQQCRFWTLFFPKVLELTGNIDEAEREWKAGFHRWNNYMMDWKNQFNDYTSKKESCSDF
Sequence of Acetylcholinesterase (O42275 whole entry): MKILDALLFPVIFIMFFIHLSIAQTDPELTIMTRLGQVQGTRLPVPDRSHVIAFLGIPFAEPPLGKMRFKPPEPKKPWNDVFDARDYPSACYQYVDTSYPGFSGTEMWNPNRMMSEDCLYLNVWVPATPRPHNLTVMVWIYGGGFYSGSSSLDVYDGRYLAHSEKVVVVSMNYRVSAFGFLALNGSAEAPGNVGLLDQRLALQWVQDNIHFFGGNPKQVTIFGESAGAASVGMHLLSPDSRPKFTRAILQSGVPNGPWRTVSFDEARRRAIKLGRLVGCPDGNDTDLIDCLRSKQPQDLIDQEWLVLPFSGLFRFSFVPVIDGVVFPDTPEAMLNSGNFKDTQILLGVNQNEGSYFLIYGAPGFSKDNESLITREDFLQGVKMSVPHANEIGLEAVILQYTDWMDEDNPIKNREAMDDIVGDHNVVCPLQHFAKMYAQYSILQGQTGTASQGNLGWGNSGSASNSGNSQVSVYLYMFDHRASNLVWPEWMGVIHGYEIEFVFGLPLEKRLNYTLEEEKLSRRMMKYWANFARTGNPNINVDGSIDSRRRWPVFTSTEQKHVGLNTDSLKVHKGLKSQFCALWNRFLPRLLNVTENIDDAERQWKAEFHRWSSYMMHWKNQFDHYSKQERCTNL

Row | Compound | IC50 [1] | viability at 1 µM [2] | viability at 5 µM [3] | viability at 10 µM [4] | viability at 30 µM [5] | viability at 50 µM [6] | IC50 [7] | logD at 48 h [8] | Activity [9]
1 | CC(C)(C)c1ccc(S(=O)(=O)Nc2ccc3nc4n(c(=O)c3c2)CCc2c-4[nH]c3ccccc23)cc1 | > 100 µM | 37.6% | 39.9% | 41.2% | 41.7% | 43.6% | 13 µM |  | 
2 | O=c1c(O)c(-c2ccc(O)c(O)c2)oc2cc(O)cc(O)c12 [QUERCETIN] |  | 48.9% | 56.3% | 57.9% | 60.6% | 62.7% |  |  | 
3 | O=c1c2cc(NS(=O)(=O)c3cccs3)ccc2nc2n1CCc1c-2[nH]c2ccccc12 | > 100 µM | 37.7% | 39.2% | 40.8% | 41.9% | 42.4% | > 100 µM |  | 
4 | COc1ccc(S(=O)(=O)Nc2ccc3nc4n(c(=O)c3c2)CCc2c-4[nH]c3ccccc23)cc1 | > 100 µM | 39.3% | 51.8% | 42.3% | 43.2% | 49% | 8.01 µM |  | 
5 | COc1ccc(S(=O)(=O)Nc2ccc3nc4n(c(=O)c3c2)CCc2c-4[nH]c3ccccc23)c(OC)c1 | 77 µM | 49.6% | 51.1% | 52% | 56% | 51.1% | 7.58 µM |  | 
6 | O=c1c2cc(NS(=O)(=O)c3cccc([N+](=O)[O-])c3)ccc2nc2n1CCc1c-2[nH]c2ccccc12 | > 100 µM | 27% | 38.7% | 40.9% | 34% | 25.6% | 23.3 µM |  | 
7 | COc1cc2c(cc1OC)C(=O)C(CC1CCN(Cc3ccccc3)CC1)C2 (stereo unspecified) [DONEPEZIL] |  | 49.2% | 57.1% | 65.5% | 68.9% | 76.7% |  |  | 
8 | O=c1c2cc(NS(=O)(=O)c3ccc(C(F)(F)F)cc3)ccc2nc2n1CCc1c-2[nH]c2ccccc12 | > 100 µM | 43.6% | 54.9% | 56.1% | 56.5% | 60.1% | 8.28 µM | 3.01 | Dose-dependent effect
9 | O=c1c2cc(NS(=O)(=O)c3ccc(Br)s3)ccc2nc2n1CCc1c-2[nH]c2ccccc12 | 83.4 µM | 52% | 52.3% | 55.1% | 56.2% | 58.2% | 60.3 µM | 2.91 | Dose-dependent effect
10 | COc1ccc(S(=O)(=O)Nc2ccc3nc4n(c(=O)c3c2)CCc2c-4[nH]c3ccccc23)cc1OC | 51.2 µM | 40.4% | 44% | 45.2% | 47.7% | 51% | 10.9 µM |  | 
11 | O=c1c2cc(NS(=O)(=O)c3ccc([N+](=O)[O-])cc3)ccc2nc2n1CCc1c-2[nH]c2ccccc12 | > 100 µM | 32.4% | 33% | 37.1% | 33.5% | 31% | 16.5 µM |  | 
12 | O=c1c2cc(NS(=O)(=O)c3ccc(Cl)s3)ccc2nc2n1CCc1c-2[nH]c2ccccc12 | > 100 µM | 43.5% | 48% | 55.1% | 56% | 54.5% | 76.9 µM |  | 
13 | O=c1c2cc(NS(=O)(=O)c3c(Cl)cccc3Cl)ccc2nc2n1CCc1c-2[nH]c2ccccc12 | 100 µM | 40.7% | 42.1% | 42.9% | 45.4% | 48.3% | 13.7 µM |  | 
14 | O=c1c2cc(NS(=O)(=O)c3cc(Cl)cc(Cl)c3)ccc2nc2n1CCc1c-2[nH]c2ccccc12 | 84.4 µM | 42.4% | 45.3% | 47.9% | 59.6% | 69.5% | 7.94 µM | 3.21 | Dose-dependent effect
15 | COC(=O)c1sccc1S(=O)(=O)Nc1ccc2nc3n(c(=O)c2c1)CCc1c-3[nH]c2ccccc12 | > 100 µM | 35.9% | 42.5% | 39.9% | 39.8% | 38% | > 100 µM |  | 
16 | O=c1c2cc(NS(=O)(=O)c3ccc(F)cc3)ccc2nc2n1CCc1c-2[nH]c2ccccc12 | > 100 µM | 41.9% | 44.7% | 45.5% | 46.6% | 51.8% | 7.57 µM | 2.25 | 
17 | O=c1c2cc(NS(=O)(=O)c3cccc(C(F)(F)F)c3)ccc2nc2n1CCc1c-2[nH]c2ccccc12 | > 100 µM | 49.1% | 50.7% | 53.2% | 53.5% | 55.9% | 3.82 µM | 3.01 | 
18 | O=c1c2cc(NS(=O)(=O)c3ccc(Br)cc3)ccc2nc2n1CCc1c-2[nH]c2ccccc12 | 40.4 µM | 39.9% | 41.8% | 44.1% | 45.4% | 47.6% | 8.94 µM |  | 
19 | O=c1c2cc(NS(=O)(=O)c3ccc(OC(F)(F)F)cc3)ccc2nc2n1CCc1c-2[nH]c2ccccc12 | 34.6 µM | 51.6% | 55.9% | 60.1% | 61.8% | 63.8% | 3.95 µM | 3.62 | Dose-dependent effect
20 | O=c1c2cc(NS(=O)(=O)c3ccc(F)c(Cl)c3)ccc2nc2n1CCc1c-2[nH]c2ccccc12 | 85.6 µM | 48.1% | 50.8% | 58.1% | 59.4% | 61.1% | 4.63 µM | 2.81 | Dose-dependent effect
21 | CC(=O)c1ccc(S(=O)(=O)Nc2ccc3nc4n(c(=O)c3c2)CCc2c-4[nH]c3ccccc23)cc1 | > 100 µM | 46.7% | 48% | 54.4% | 57.7% | 59.8% | 25.8 µM |  | Dose-dependent effect

From ChEMBL document CHEMBL4350991, “Design, synthesis, and biological evaluation of rutacecarpine derivatives as multitarget-directed ligands for the treatment of Alzheimer's disease” (Eur J Med Chem, 2019)
